Reference: US8399380B2, “Herbicidal composition” (Sumitomo Chemical Company, Limited, priority 2007, dated 2013)

Experiments:
Format in all cases: in vivo
Parameters in all cases: key: 0: there is no or little difference in the degree of growth between treated plants and untreated plants at the time of observation; 1: evaluated at 6 levels using the indices of 0 to 5; 2: evaluated at 6 levels using the indices of 0 to 5; 3: evaluated at 6 levels using the indices of 0 to 5; The herbicidal values of “4” and “5” show excellent herbicidal activity; 5: the test plants die completely or their growth is completely inhibited
Alopecurus myosuroides = experiment: Test Example 1, soil application, pot test in greenhouse; conditions: 34 days after application
Source text: (§1) The herbicidal values of “4” and “5” show excellent herbicidal activity. Each of plastic pots (measuring 22 cm in diameter and 19 cm in height) was filled with upland field soil and sown with Lolium multiflorum and Alopecurus myosuroides. Each of the predetermined amounts of a flumioxazin formulation product (trade name: Valor_SX, manufactured by Valent USA Corporation), a sulfosulfuron formulation product (trade name: Monitor, manufactured by Monsanto Company) and a mixture of the flumioxazin formulation product and the sulfosulfuron formulation product was diluted with water, and then the dilution was uniformly sprayed over the soil surface by a small-sized sprayer. After the treatment, the weeds were grown in a greenhouse, and the herbicidal activity against the weeds was evaluated at 34 days after application.

Lolium multiflorum = experiment: as above; conditions: 34 days after application
Source text: as §1

Solidago altissima = experiment: Test Example 2, foliar application, pot test in greenhouse; conditions: 29 days after treatment
Source text: The herbicidal values of “4” and “5” show excellent herbicidal activity. Each of plastic pots (measuring 12 cm in diameter and 8 cm in height) was filled with upland field soil and Solidago altissima collected from outdoors was transplanted to the plastic pot and grown in a greenhouse for 31 days. Each of the predetermined amounts of a flumioxazin formulation product (trade name: Valor_SX, manufactured by Valent USA Corporation), a sulfosulfuron formulation product (trade name: Monitor, manufactured by Monsanto Company) and a mixture of the flumioxazin formulation product and the sulfosulfuron formulation product was diluted with water, and then the dilution was uniformly sprayed over each plant body from above by a small-sized sprayer. After the treatment, the weeds were grown in a greenhouse for 29 days, and then the herbicidal activity against the weeds was evaluated.

CCS(=O)(=O)c1nc2ccccn2c1S(=O)(=O)NC(=O)Nc1nc(OC)cc(OC)n1 [Sulfosulfuron, 1-(4,6-dimethoxypyrimidin-2-yl)-3-(2-ethylsulfonylimidazo[1,2-a]pyridin-3-ylsulfonyl)urea]
Herbicidal activity Alopecurus myosuroides (Alopecurus myosuroides; active ingredient 20 g/ha): 0 | Herbicidal activity Alopecurus myosuroides (Alopecurus myosuroides; active ingredient 40 g/ha): 2 | Herbicidal activity Lolium multiflorum (Lolium multiflorum; active ingredient 20 g/ha): 0 | Herbicidal activity Lolium multiflorum (Lolium multiflorum; active ingredient 40 g/ha): 0 | Herbicidal activity Solidago altissima (Solidago altissima; active ingredient 40 g/ha): 2

C#CCN1C(=O)COc2cc(F)c(N3C(=O)C4=C(CCCC4)C3=O)cc21 [Flumioxazin, N-(7-fluoro-3,4-dihydro-3-oxo-4-prop-2-ynyl-2H-1,4-benzeoxazin-6-yl)cyclohex-1-ene-1,2-dicarboxamide]
Herbicidal activity Alopecurus myosuroides (Alopecurus myosuroides; active ingredient 10 g/ha): 1 | Herbicidal activity Alopecurus myosuroides (Alopecurus myosuroides; active ingredient 20 g/ha): 4 | Herbicidal activity Lolium multiflorum (Lolium multiflorum; active ingredient 10 g/ha): 0 | Herbicidal activity Lolium multiflorum (Lolium multiflorum; active ingredient 20 g/ha): 1 | Herbicidal activity Solidago altissima (Solidago altissima; active ingredient 60 g/ha): 0 | Herbicidal activity Solidago altissima (Solidago altissima; active ingredient 120 g/ha): 1
